Values of other authors in patent US20240050502A1, “AMANITA MUSCARIA COMPOUNDS” (priority 2020, published 2024).

Legend:
mice = details: for LD50: intravenous administration in mice
[1] = in vivo
monkey = details: quantity many times that which would cause poisoning by ingestion of Amanita muscaria in the human
[2] = system: inflammatory pain induced by formalin; details: mice

NCc1cc(=O)[nH]o1 [muscimol]
LD50 (mice): 5.62 mg/kg | dose at which central nervous system intoxication occurs [1]: 6.0 mg

β(1→6)-branched (1→3)-β-d-glucan
antitumor activity against sarcoma 180 tumors (sarcoma 180 tumors; mice): significant antitumor activity | antitumor effect when mixed with mitomycin C (sarcoma 180 tumors; mixed with the chemotherapy drug mitomycin C): greater than that of mitomycin C alone

C[C@@H]1O[C@H](C[N+](C)(C)C)C[C@H]1O [muscarine]
activity by mouth (monkey): inactive

N[C@H](C(=O)O)c1cc(=O)[nH]o1 [ibotenic acid]
LD50 (mice): 15 mg/kg | oral LD50 (mice; oral, mice): 38 mg/kg | minimum dose needed to obtain psychedelic effects [1]: 30 to 60 mg

fucomannogalactan
inflammatory pain induced by formalin [2]: significantly reduced
